Source: the supplement of paper PMC10307832

Legend:
Assay in all cases: relative viability (nuclei count vs DMSO), 5 days (fraction); higher = more cells survive
[1] = test system: PC-3 [JPC-3]
How it was run: (§1)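 Lung cancer cell lines in 1536-well plates got either a single drug or a fixed anchor-drug dose together with five library-drug doses (not always all listed) in √10 steps, by pin tool, on the day after seeding. Nuclei were counted after 5 days, and relative viability is the treated-to-vehicle ratio of nuclei counts. Values are medians of duplicate plates.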

[2] = test system: BEN
How it was run: as §1

[3] = test system: COR-L 105
How it was run: as §1

[4] = test system: NCI-H2170
How it was run: as §1

[5] = test system: SW 1573
How it was run: as §1

[6] = test system: LU99A
How it was run: as §1

[7] = test system: H3255
How it was run: as §1

[8] = test system: NCI-H1975
How it was run: as §1

[9] = test system: NCI-H1437
How it was run: as §1

[10] = test system: NCI-H2087
How it was run: as §1

[11] = test system: EKVX
How it was run: as §1

[12] = test system: NCI-H2085
How it was run: as §1

[13] = test system: EPLC-272H
How it was run: as §1

[14] = test system: NCI-H2342
How it was run: as §1

[15] = test system: 201T
How it was run: as §1

[16] = test system: NCI-H1666
How it was run: as §1

[17] = test system: LCLC-97TM1
How it was run: as §1

[18] = test system: HCC-827
How it was run: as §1

[19] = test system: NCI-H650
How it was run: as §1

[20] = test system: NCI-H647
How it was run: as §1

[21] = test system: HCC-44
How it was run: as §1

[22] = test system: LOU-NH91
How it was run: as §1

`COc1cc2nccc(Oc3ccc(NC(=O)Nc4cc(C)on4)c(Cl)c3)c2cc1OC` [Tivozanib] + COc1cccc2cc(-c3nc([C@H]4CC[C@H](C(=O)O)CC4)n4ncnc(N)c34)[nH]c12 [OSI-027] (partner 0.5 µM) gave a relative viability ([1]; first compound 0.005 µM) of 0.665, a relative viability ([1]; first compound 0.01581 µM) of 0.722 and a relative viability ([1]; first compound 0.05 µM) of 0.774. For the same compound, the relative viability ([1]; first compound 0.1581 µM) was 0.591, the relative viability ([1]; first compound 0.5 µM) was 0.733 and the relative viability ([2]; first compound 0.005 µM) was 0.281. It also gave a relative viability ([2]; first compound 0.01581 µM) of 0.306, a relative viability ([2]; first compound 0.05 µM) of 0.311 and a relative viability ([2]; first compound 0.1581 µM) of 0.298. It also gave a relative viability ([2]; first compound 0.5 µM) of 0.318, a relative viability ([3]; first compound 0.005 µM) of 0.707 and a relative viability ([3]; first compound 0.01581 µM) of 0.748. For the same compound, the relative viability ([3]; first compound 0.05 µM) was 0.719, the relative viability ([3]; first compound 0.1581 µM) was 0.525 and the relative viability ([3]; first compound 0.5 µM) was 0.762. It also gave a relative viability ([4]; first compound 0.005 µM) of 0.633, a relative viability ([4]; first compound 0.01581 µM) of 0.78 and a relative viability ([4]; first compound 0.05 µM) of 0.723. The relative viability ([4]; first compound 0.1581 µM) was 0.464, the relative viability ([4]; first compound 0.5 µM) was 0.661 and the relative viability ([5]; first compound 0.005 µM) was 0.575. For the same compound, the relative viability ([5]; first compound 0.01581 µM) was 0.633, the relative viability ([5]; first compound 0.05 µM) was 0.68 and the relative viability ([5]; first compound 0.1581 µM) was 0.366. The relative viability ([5]; first compound 0.5 µM) was 0.447, the relative viability ([6]; first compound 0.005 µM) was 0.292 and the relative viability ([6]; first compound 0.01581 µM) was 0.302. It also gave a relative viability ([6]; first compound 0.05 µM) of 0.301, a relative viability ([6]; first compound 0.1581 µM) of 0.268 and a relative viability ([6]; first compound 0.5 µM) of 0.238. It also gave a relative viability ([7]; first compound 0.005 µM) of 0.571, a relative viability ([7]; first compound 0.01581 µM) of 0.597 and a relative viability ([7]; first compound 0.05 µM) of 0.634. The relative viability ([7]; first compound 0.1581 µM) was 0.47, the relative viability ([7]; first compound 0.5 µM) was 0.556 and the relative viability ([8]; first compound 0.005 µM) was 0.673. The relative viability ([8]; first compound 0.01581 µM) was 0.634, the relative viability ([8]; first compound 0.05 µM) was 0.709 and the relative viability ([8]; first compound 0.1581 µM) was 0.565. The relative viability ([8]; first compound 0.5 µM) was 0.475, the relative viability ([9]; first compound 0.005 µM) was 0.887 and the relative viability ([9]; first compound 0.01581 µM) was 0.843. For the same compound, the relative viability ([9]; first compound 0.05 µM) was 0.946, the relative viability ([9]; first compound 0.1581 µM) was 0.661 and the relative viability ([9]; first compound 0.5 µM) was 0.837. The relative viability ([10]; first compound 0.005 µM) was 0.461, the relative viability ([10]; first compound 0.01581 µM) was 0.6 and the relative viability ([10]; first compound 0.05 µM) was 0.558. The relative viability ([10]; first compound 0.1581 µM) was 0.376, the relative viability ([10]; first compound 0.5 µM) was 0.44 and the relative viability ([11]; first compound 0.005 µM) was 0.665. The relative viability ([11]; first compound 0.01581 µM) was 0.735, the relative viability ([11]; first compound 0.05 µM) was 0.67 and the relative viability ([11]; first compound 0.1581 µM) was 0.585. The relative viability ([11]; first compound 0.5 µM) was 0.731, the relative viability ([12]; first compound 0.005 µM) was 0.757 and the relative viability ([12]; first compound 0.01581 µM) was 0.66. It also gave a relative viability ([12]; first compound 0.05 µM) of 0.817, a relative viability ([12]; first compound 0.1581 µM) of 0.382 and a relative viability ([12]; first compound 0.5 µM) of 0.528. For the same compound, the relative viability ([13]; first compound 0.005 µM) was 0.268, the relative viability ([13]; first compound 0.01581 µM) was 0.318 and the relative viability ([13]; first compound 0.05 µM) was 0.299. For the same compound, the relative viability ([13]; first compound 0.1581 µM) was 0.244, the relative viability ([13]; first compound 0.5 µM) was 0.294 and the relative viability ([14]; first compound 0.005 µM) was 0.67. It also gave a relative viability ([14]; first compound 0.01581 µM) of 0.556, a relative viability ([14]; first compound 0.05 µM) of 0.644 and a relative viability ([14]; first compound 0.5 µM) of 0.562. It also gave a relative viability ([15]; first compound 0.005 µM) of 0.777, a relative viability ([15]; first compound 0.01581 µM) of 0.798 and a relative viability ([15]; first compound 0.05 µM) of 0.36. For the same compound, the relative viability ([15]; first compound 0.1581 µM) was 0.572, the relative viability ([15]; first compound 0.5 µM) was 0.709 and the relative viability ([16]; first compound 0.005 µM) was 0.927. For the same compound, the relative viability ([16]; first compound 0.01581 µM) was 0.856, the relative viability ([16]; first compound 0.05 µM) was 0.843 and the relative viability ([16]; first compound 0.1581 µM) was 0.799. The relative viability ([16]; first compound 0.5 µM) was 0.807, the relative viability ([17]; first compound 0.005 µM) was 0.52 and the relative viability ([17]; first compound 0.01581 µM) was 0.573. The relative viability ([17]; first compound 0.05 µM) was 0.636, the relative viability ([17]; first compound 0.1581 µM) was 0.476 and the relative viability ([17]; first compound 0.5 µM) was 0.455. For the same compound, the relative viability ([18]; first compound 0.005 µM) was 0.74, the relative viability ([18]; first compound 0.01581 µM) was 0.693 and the relative viability ([18]; first compound 0.05 µM) was 0.766. For the same compound, the relative viability ([18]; first compound 0.1581 µM) was 0.621, the relative viability ([18]; first compound 0.5 µM) was 0.763 and the relative viability ([19]; first compound 0.005 µM) was 0.489. It also gave a relative viability ([19]; first compound 0.01581 µM) of 0.577, a relative viability ([19]; first compound 0.05 µM) of 0.613 and a relative viability ([19]; first compound 0.1581 µM) of 0.44. The relative viability ([19]; first compound 0.5 µM) was 0.398, the relative viability ([20]; first compound 0.005 µM) was 0.74 and the relative viability ([20]; first compound 0.01581 µM) was 0.618. It also gave a relative viability ([20]; first compound 0.05 µM) of 0.728, a relative viability ([20]; first compound 0.1581 µM) of 0.526 and a relative viability ([20]; first compound 0.5 µM) of 0.658. The relative viability ([21]; first compound 0.005 µM) was 0.483, the relative viability ([21]; first compound 0.01581 µM) was 0.544 and the relative viability ([21]; first compound 0.05 µM) was 0.485. The relative viability ([21]; first compound 0.1581 µM) was 0.41, the relative viability ([21]; first compound 0.5 µM) was 0.464 and the relative viability ([22]; first compound 0.005 µM) was 0.695. For the same compound, the relative viability ([22]; first compound 0.01581 µM) was 0.807, the relative viability ([22]; first compound 0.05 µM) was 0.762 and the relative viability ([22]; first compound 0.1581 µM) was 0.61. It also gave a relative viability ([22]; first compound 0.5 µM) of 0.729.
